Experiments:
[1] = Displacement of [3H]Ro15-1788 from GABAA receptor in bovine cerebral cortex membranes after 90 mins by liquid scintillation counting method; assay type: cell membranes, Bos taurus, Membrane
Rattus norvegicus [2] = species on record: Rattus norvegicus; assay: Displacement of [3H]Ro15-1788 from recombinant rat GABAAalpha2/beta2/gamma2 receptor at 10 uM after 90 mins by liquid scintillation counting method relative to control
[3] = Displacement of [3H]Ro15-1788 from recombinant rat GABAAalpha3/beta2/gamma2 receptor after 90 mins by liquid scintillation counting method
[4] = molecular target: GABA-A receptor; alpha-1/beta-2/gamma-2 (Rattus norvegicus, UniProt P18508+P62813+P63138); assay: Displacement of [3H]Ro15-1788 from recombinant rat GABAAalpha1/beta2/gamma2 receptor after 90 mins by liquid scintillation counting method; assay type: protein-complex assay
[5] = molecular target: GABA A receptor alpha-5/beta-3/gamma-2 (Rattus norvegicus, UniProt P18508+P19969+P63079); assay: Displacement of [3H]Ro15-1788 from recombinant rat GABAAalpha5/beta3/gamma2 receptor after 90 mins by liquid scintillation counting method; assay type: protein-complex assay
[6] = Displacement of [3H]Ro15-1788 from recombinant rat GABAAalpha2/beta2/gamma2 receptor after 90 mins by liquid scintillation counting method
[7] = molecular target: GABA A receptor alpha-5/beta-3/gamma-2 (Rattus norvegicus) (UniProt P18508+P19969+P63079); assay: Displacement of [3H]Ro15-1788 from recombinant rat GABAAalpha5/beta3/gamma2 receptor at 10 uM after 90 mins by liquid scintillation counting method relative to control; assay type: protein-complex assay
Bos taurus = species on record: Bos taurus; assay: Displacement of [3H]Ro15-1788 from GABAA receptor in bovine cerebral cortex membranes at 10 uM after 90 mins by liquid scintillation counting method relative to control; assay type: cell membranes; details: Membrane
Rattus norvegicus [8] = species on record: Rattus norvegicus; assay: Displacement of [3H]Ro15-1788 from recombinant rat GABAAalpha3/beta2/gamma2 receptor at 10 uM after 90 mins by liquid scintillation counting method relative to control
Rattus norvegicus [9] = species on record: Rattus norvegicus; assay: Selectivity ratio of Ki for recombinant rat GABAAalpha1/beta2/gamma2 receptor to Ki for recombinant rat GABAAalpha2/beta2/gamma2 receptor
Rattus norvegicus [10] = species on record: Rattus norvegicus; assay: Selectivity ratio of Ki for recombinant rat GABAAalpha5/beta3/gamma2 receptor to Ki for recombinant rat GABAAalpha2/beta2/gamma2 receptor

Sequence of GABA-A receptor; alpha-1/beta-2/gamma-2 (P18508 whole entry): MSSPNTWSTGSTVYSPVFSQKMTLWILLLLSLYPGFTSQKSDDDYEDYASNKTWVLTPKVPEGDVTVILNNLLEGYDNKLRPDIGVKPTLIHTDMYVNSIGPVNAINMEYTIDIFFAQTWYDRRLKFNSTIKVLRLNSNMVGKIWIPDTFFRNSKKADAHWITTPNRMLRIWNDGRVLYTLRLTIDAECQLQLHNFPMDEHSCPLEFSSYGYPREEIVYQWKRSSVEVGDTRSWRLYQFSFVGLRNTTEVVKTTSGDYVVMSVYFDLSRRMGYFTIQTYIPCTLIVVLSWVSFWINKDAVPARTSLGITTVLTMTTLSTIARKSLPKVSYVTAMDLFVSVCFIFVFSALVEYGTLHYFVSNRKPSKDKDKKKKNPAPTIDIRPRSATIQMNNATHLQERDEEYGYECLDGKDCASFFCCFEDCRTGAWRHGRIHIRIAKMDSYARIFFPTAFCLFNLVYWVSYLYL
Sequence of GABA-A receptor; alpha-1/beta-2/gamma-2 (P62813 whole entry): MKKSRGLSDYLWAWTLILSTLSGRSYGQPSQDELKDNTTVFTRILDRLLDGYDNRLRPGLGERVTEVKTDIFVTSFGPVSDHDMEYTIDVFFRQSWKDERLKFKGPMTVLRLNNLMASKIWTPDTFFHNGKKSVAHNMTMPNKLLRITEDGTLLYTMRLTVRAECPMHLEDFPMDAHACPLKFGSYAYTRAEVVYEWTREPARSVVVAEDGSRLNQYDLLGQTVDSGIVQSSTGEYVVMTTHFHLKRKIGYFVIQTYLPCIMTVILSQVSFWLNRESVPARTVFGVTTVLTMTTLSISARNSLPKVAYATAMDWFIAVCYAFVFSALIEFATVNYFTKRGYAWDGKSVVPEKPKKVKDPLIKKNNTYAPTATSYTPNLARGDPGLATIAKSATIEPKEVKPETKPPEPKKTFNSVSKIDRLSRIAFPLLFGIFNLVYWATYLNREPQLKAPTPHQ
Sequence of GABA-A receptor; alpha-1/beta-2/gamma-2 (P63138 whole entry): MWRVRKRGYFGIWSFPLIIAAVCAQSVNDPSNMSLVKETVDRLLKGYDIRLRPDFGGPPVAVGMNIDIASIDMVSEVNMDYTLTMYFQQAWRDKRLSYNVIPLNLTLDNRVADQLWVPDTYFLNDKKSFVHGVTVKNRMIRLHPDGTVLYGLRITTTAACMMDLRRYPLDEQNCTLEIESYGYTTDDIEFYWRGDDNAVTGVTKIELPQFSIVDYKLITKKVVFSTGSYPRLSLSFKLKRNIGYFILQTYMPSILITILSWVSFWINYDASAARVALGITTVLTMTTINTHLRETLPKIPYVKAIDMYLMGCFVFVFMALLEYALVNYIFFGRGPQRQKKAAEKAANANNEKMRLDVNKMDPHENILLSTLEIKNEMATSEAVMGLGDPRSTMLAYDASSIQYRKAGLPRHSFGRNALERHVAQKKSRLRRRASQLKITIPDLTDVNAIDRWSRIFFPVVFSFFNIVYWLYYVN
Sequence of GABA A receptor alpha-5/beta-3/gamma-2 (P18508 whole entry): as the sequence (P18508 whole entry) above
Sequence of GABA A receptor alpha-5/beta-3/gamma-2 (P19969 whole entry): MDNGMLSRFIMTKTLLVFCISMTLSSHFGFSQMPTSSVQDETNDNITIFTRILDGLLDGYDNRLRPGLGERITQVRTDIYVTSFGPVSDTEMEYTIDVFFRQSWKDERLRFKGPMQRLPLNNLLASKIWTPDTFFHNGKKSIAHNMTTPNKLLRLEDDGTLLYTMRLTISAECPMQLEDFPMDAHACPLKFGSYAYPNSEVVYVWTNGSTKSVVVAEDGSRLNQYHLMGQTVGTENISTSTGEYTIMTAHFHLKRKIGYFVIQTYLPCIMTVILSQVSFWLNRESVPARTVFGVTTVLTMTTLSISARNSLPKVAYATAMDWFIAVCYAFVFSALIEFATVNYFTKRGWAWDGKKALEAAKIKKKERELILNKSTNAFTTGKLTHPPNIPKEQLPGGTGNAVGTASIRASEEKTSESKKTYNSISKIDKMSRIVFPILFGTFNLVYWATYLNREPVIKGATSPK
Sequence of GABA A receptor alpha-5/beta-3/gamma-2 (P63079 whole entry): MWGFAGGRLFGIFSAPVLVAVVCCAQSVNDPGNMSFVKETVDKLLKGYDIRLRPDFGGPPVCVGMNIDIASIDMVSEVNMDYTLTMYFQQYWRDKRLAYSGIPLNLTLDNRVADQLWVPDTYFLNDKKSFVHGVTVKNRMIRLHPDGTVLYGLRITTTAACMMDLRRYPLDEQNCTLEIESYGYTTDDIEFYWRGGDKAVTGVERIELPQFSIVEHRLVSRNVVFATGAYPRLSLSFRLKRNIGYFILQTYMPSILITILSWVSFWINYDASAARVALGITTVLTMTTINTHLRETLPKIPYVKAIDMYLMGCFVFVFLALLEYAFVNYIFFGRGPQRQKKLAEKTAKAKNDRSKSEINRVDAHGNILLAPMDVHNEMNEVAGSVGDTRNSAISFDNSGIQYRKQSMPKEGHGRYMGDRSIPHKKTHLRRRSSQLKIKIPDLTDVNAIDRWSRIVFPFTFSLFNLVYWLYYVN

SMILES | Ki [1] | Ki [4] | Ki [6] | also measured
O=c1c(-c2cc[nH]n2)c[nH]c2c(-c3ccccn3)cnn12 | 14.2 nM |  |  | 
O=c1c(-c2cc[nH]n2)c[nH]c2c(Cc3ccccc3)cnn12 | 854 nM |  |  | 
O=c1c(-c2cc[nH]n2)n[nH]c2c(-c3ccc4ccccc4c3)cnn12 | 2300 nM |  |  | 
O=c1c(-c2cc[nH]n2)n[nH]c2c(-c3cccc4ccccc34)cnn12 | 77 nM | 150 nM |  | Ki [5]: 159 nM
O=c1c(-c2cc[nH]n2)n[nH]c2c(-c3cccc(C(F)(F)F)c3)cnn12 | 7.2 nM | 6.5 nM | > 5000 nM | Ki [3]: 501 nM; Ki [5]: 144 nM
O=c1c(-c2cc[nH]n2)c[nH]c2c(-c3ccc4ccccc4c3)cnn12 |  |  |  | inhibition (Bos taurus): 20%
Cc1ccc(-c2cnn3c(=O)c(-c4cc[nH]n4)n[nH]c23)cc1 |  |  |  | inhibition (Bos taurus): 32%
O=c1c(-c2cc[nH]n2)n[nH]c2c(-c3ccc(F)cc3)cnn12 | 88.3 nM | 77.3 nM | 2420 nM | Ki [3]: 894 nM; Ki [5]: 1110 nM
O=c1c(-c2cc[nH]n2)c[nH]c2c(-c3cccc(Cl)c3)cnn12 | 95.4 nM |  |  | 
O=c1c(-c2cc[nH]n2)n[nH]c2c(-c3cccc(Cl)c3)cnn12 | 74 nM | 65.6 nM | 990 nM | Ki [3]: 660 nM; inhibition [7]: 40%
O=c1c(-n2ccnc2)c[nH]c2c(-c3ccccc3)cnn12 |  |  |  | inhibition (Bos taurus): 2%
O=c1c(-n2cccn2)c[nH]c2c(-c3ccccc3)cnn12 |  |  |  | inhibition (Bos taurus): 59.5%
O=c1c(-n2cccn2)c[nH]c2c(-c3cccs3)cnn12 |  |  |  | inhibition (Bos taurus): 13.9%
O=c1c(-n2ccnc2)c[nH]c2c(-c3cccs3)cnn12 |  |  |  | inhibition (Bos taurus): 14.7%

More lines, main results first:

Ki [1] | Ki [4] | Ki [6] | SMILES | also measured
38 nM | 21 nM |  | O=c1c(-c2cc[nH]n2)n[nH]c2c(-c3cccc(Br)c3)cnn12 | inhibition (Rattus norvegicus [2]): 50%; Ki [3]: 570 nM; Ki [5]: 1120 nM
10.5 nM | 9.1 nM | 12 nM | O=c1c(-c2cc[nH]n2)n[nH]c2c(-c3ccccn3)cnn12 | inhibition [7]: 32%
599 nM |  |  | O=c1c(-c2cc[nH]n2)c[nH]c2c(-c3cccc4ccccc34)cnn12 | 
1610 nM |  |  | COc1ccc(-c2cnn3c(=O)c(-c4cc[nH]n4)n[nH]c23)cc1 | 
329 nM | 420 nM | 3000 nM | O=c1c(-c2cc[nH]n2)n[nH]c2c(-c3ccccc3)cnn12 | Ki [3]: 2090 nM; Ki [5]: 408 nM
533 nM |  |  | O=c1c(-c2cc[nH]n2)c[nH]c2c(-c3cccs3)cnn12 | 
152 nM | 100 nM | 632 nM | O=c1c(-c2cc[nH]n2)n[nH]c2c(-c3cccc(F)c3)cnn12 | Ki [3]: 1080 nM; inhibition [7]: 23%
326 nM |  |  | O=c1c(-c2cc[nH]n2)c[nH]c2c(-c3ccccc3)cnn12 | 
237 nM | 285 nM | 41.2 nM | O=c1c(-c2cc[nH]n2)n[nH]c2c(-c3cccs3)cnn12 | inhibition (Rattus norvegicus [8]): 28%; Ratio Ki (Rattus norvegicus [9]): 7; Ki [5]: 662 nM; Ratio Ki (Rattus norvegicus [10]): 16
73.6 nM | 51 nM | 5000 nM | O=c1c(-c2cc[nH]n2)n[nH]c2c(-c3cccnc3)cnn12 | Ki [3]: 502 nM; Ki [5]: 1240 nM
37.3 nM |  |  | O=c1c(-c2cc[nH]n2)c[nH]c2c(-c3cccnc3)cnn12 | 
2670 nM |  |  | O=c1c(-c2cc[nH]n2)c[nH]c2c(-n3cccc3)cnn12 | 
